Test results taken from article PMC5701053, “Multicomponent mapping of boron chemotypes furnishes selective enzyme inhibitors” (Nature Communications, 2017).

Key:
[1] = molecular target: T1, α/β-hydrolase domain 3 (ABHD3) (Homo sapiens, UniProt Q8WU67); assay: competitive gel-based ABPP (mouse brain proteome; follow-up in HEK […] lysates expressing ABHD3); assay type: cell-based
T1 sequence (Q8WU67 1-409): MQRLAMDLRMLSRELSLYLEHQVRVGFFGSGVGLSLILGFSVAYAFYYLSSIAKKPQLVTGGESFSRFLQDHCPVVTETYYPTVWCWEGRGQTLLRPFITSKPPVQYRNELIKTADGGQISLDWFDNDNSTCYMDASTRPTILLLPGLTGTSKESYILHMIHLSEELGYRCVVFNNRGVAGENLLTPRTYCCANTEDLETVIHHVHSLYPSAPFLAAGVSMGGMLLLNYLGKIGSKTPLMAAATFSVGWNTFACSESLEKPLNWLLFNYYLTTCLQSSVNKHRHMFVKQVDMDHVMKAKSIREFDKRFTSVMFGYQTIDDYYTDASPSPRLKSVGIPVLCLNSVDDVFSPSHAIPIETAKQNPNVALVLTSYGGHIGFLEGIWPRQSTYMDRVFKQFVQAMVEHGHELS

[2] = molecular target: T1, α/β-hydrolase domain 3 (ABHD3); assay: competitive gel-based ABPP (FP-rhodamine) in HEK […] lysate overexpressing human ABHD3; also in situ (IC50 […]) and ABPP-SILAC in SW620 cells; assay type: biochemical

| IC50 [2] | Compound | competitive gel-based ABPP (mouse brain proteome); follow-up in HEK 293T lysates [1] |
| --- | --- | --- |
|  | Cc1ccc(CN(C(=O)c2ccccc2)C(C#N)C[B-]23OC(=O)C[N+]2(C)CC(=O)O3)cc1 (stereo not drawn) [4g] | Compound 4j appears equipotent with compounds 4h and 4g against ABHD3, but is more selective against ABHD10. |
|  | C[N+]12CC(=O)O[B-]1(CC(C#N)N(Cc1ccccc1Cl)C(=O)c1ccccc1)OC(=O)C2 (stereo not drawn) [4h] | Compound 4j appears equipotent with compounds 4h and 4g against ABHD3, but is more selective against ABHD10. |
| 140 nM | C[N+]12CC(=O)O[B-]1(CC(C#N)N(Cc1ccc(F)cc1Cl)C(=O)c1ccccc1)OC(=O)C2 (racemic) [4j] |  |
